One data set deals with Mu-type opioid receptor (Homo sapiens, UniProt P35372). Kind of data set: DRUGMATRIX: Opiate mu (OP3, MOP) radioligand binding (ligand: [3H] Diprenorphine). The format is cell membranes, CHO-K1, Membrane. Particulars: cho-k1; Not Active = under 50% inhibition at 10 µM.
For another data set, the target named is Cytochrome P450 2E1 (Homo sapiens, UniProt P05181). Particulars: bti-tn-5b1-4. Further: in other assays of this panel Not Active means under 50% inhibition at 10 µM.
Cytochrome P450 2E1, sequence (P05181 whole entry): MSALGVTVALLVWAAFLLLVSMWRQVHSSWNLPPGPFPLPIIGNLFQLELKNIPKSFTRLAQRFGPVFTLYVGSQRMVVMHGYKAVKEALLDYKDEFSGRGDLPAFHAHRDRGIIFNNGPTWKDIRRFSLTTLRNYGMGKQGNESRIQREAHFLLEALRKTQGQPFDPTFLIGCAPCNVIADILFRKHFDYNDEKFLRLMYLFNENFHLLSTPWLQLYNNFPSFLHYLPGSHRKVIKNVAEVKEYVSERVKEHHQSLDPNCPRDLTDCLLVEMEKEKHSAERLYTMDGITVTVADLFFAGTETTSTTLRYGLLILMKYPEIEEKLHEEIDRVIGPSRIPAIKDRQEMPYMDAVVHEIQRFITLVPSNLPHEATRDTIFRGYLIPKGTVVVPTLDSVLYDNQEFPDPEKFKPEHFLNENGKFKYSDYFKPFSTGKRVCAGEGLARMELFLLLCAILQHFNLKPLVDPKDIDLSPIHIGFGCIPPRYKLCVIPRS
Data set [1] in a line: DRUGMATRIX: Leukotriene, BLT (LTB4) radioligand binding (ligand: [3H]LTB4). The note with it: u-937; Not Active = under 50% inhibition at 10 µM. Format: cell membranes, Membrane.
Data set [2] in a line: DRUGMATRIX: Phosphodiesterase PDE3 enzyme inhibition (substrate: [3H]cAMP + cAMP). The format is tissue-based, Homo sapiens. Particulars: platelet; Not Active = under 50% inhibition at 10 µM.
Data set [3] in a line: DRUGMATRIX: GABAA, Flunitrazepam, Central radioligand binding (ligand: [3H] Flunitrazepam). The note with it: Not Active = under 50% inhibition at 10 µM. Format: cell membranes, Rattus norvegicus, Wistar, Brain, Membrane.
Data set [4] is described as follows: DRUGMATRIX: Glutamate, NMDA, Phencyclidine radioligand binding (ligand: [3H] TCP). Format: cell membranes, Rattus norvegicus, Wistar, Cerebral cortex, Membrane. The note with it: Not Active = under 50% inhibition at 10 µM.
The target of data set [5] is T1, Muscarinic acetylcholine receptor M5 (Homo sapiens, UniProt P08912). Further: in other assays of this panel Not Active means under 50% inhibition at 10 µM.
T1 sequence (P08912 whole entry): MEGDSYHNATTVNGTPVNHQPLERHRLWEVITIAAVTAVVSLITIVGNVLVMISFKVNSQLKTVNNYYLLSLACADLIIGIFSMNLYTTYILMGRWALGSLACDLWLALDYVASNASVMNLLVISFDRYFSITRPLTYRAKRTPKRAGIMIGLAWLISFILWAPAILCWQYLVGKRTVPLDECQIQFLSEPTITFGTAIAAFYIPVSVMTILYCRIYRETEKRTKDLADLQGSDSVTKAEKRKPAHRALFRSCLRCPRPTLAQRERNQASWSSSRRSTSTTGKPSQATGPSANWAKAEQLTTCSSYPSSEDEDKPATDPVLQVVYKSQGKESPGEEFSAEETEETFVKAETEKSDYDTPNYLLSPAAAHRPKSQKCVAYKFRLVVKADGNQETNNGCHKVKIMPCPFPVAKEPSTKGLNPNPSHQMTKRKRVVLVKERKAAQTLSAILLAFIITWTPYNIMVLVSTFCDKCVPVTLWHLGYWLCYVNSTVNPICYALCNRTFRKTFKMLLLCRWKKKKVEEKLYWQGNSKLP
Format: cell membranes, CHO-K1, Membrane.

Data set [6] addresses T2, Muscarinic acetylcholine receptor M2 (Homo sapiens, UniProt P08172).
T2 sequence (P08172 whole entry): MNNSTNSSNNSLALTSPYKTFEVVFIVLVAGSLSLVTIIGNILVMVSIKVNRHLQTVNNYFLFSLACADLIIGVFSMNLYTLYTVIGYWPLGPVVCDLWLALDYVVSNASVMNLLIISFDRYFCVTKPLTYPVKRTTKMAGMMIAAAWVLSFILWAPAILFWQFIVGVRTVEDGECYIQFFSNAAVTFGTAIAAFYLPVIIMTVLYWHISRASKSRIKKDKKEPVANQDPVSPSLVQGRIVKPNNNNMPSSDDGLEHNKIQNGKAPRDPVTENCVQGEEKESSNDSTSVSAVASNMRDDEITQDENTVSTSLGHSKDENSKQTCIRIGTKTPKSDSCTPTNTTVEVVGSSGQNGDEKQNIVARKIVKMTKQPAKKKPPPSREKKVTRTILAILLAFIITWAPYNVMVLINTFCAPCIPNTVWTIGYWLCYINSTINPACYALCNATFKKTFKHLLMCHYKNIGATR
The format is cell membranes, CHO-K1, Membrane. The note with it: cho-k1.

For a further data set, the target named is Insulin receptor (Rattus norvegicus, UniProt P15127). The format is cell membranes, Wistar, Liver, Membrane. Further: in other assays of this panel Not Active means under 50% inhibition at 10 µM.
Insulin receptor, sequence (P15127 27-759 limits assumed): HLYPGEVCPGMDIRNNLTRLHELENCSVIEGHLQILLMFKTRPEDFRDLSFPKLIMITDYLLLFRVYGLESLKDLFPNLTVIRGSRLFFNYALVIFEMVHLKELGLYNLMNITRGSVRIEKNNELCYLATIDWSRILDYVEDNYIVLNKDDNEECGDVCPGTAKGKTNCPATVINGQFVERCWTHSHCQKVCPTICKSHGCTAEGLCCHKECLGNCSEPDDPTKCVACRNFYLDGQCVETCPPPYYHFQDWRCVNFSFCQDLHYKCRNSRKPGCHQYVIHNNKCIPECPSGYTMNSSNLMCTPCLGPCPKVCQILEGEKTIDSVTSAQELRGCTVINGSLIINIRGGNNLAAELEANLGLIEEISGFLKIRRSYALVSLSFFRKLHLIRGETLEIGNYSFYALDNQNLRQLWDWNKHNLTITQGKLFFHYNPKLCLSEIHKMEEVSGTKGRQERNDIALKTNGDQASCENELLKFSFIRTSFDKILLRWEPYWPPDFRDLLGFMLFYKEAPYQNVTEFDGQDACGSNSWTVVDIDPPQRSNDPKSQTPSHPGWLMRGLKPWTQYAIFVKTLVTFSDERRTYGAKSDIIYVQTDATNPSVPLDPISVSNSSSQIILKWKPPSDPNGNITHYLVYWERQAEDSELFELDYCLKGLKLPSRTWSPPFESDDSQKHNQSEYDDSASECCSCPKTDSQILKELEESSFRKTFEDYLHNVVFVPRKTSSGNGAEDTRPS
Insulin receptor, sequence (P15127 764-1383 limits assumed): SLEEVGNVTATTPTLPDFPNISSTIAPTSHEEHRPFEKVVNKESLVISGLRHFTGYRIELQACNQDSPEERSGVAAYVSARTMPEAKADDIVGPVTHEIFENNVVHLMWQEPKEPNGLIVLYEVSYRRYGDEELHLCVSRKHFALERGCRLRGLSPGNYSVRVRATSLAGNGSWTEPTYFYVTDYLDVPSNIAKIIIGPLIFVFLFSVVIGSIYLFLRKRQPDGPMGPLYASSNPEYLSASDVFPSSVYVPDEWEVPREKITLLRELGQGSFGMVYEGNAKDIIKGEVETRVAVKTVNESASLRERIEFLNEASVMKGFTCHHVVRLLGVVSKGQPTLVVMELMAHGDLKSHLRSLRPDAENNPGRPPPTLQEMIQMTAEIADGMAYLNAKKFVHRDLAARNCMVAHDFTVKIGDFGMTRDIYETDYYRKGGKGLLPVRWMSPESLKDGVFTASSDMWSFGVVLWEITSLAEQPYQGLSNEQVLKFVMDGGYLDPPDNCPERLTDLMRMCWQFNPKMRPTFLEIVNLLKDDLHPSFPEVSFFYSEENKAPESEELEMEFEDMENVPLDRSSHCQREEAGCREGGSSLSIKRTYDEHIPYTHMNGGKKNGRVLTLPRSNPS
A further data set concerns the target T3, Cytochrome P450 2A6 (Homo sapiens, UniProt P11509). Further: in other assays of this panel Not Active means under 50% inhibition at 10 µM.
T3 sequence (P11509 whole entry): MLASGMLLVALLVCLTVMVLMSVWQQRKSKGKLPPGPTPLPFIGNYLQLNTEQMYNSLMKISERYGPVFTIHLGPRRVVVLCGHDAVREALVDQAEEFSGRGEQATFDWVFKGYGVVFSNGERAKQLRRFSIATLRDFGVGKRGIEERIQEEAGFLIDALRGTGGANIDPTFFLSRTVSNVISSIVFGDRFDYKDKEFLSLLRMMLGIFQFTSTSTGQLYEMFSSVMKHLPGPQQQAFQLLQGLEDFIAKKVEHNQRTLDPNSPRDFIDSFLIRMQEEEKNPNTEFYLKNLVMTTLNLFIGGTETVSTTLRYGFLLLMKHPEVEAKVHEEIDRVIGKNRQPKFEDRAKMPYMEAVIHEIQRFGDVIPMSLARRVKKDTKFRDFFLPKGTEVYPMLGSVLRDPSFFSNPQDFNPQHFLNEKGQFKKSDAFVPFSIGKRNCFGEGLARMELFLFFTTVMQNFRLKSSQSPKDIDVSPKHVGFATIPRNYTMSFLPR
Particulars: bti-tn-5b1-4.

A further data set has as its target Melanocortin receptor 4 (Homo sapiens, UniProt P32245). Format: cell membranes, Membrane. Particulars: hek293. Further: in other assays of this panel Not Active means under 50% inhibition at 10 µM.

Melanocortin receptor 4, sequence (P32245 whole entry): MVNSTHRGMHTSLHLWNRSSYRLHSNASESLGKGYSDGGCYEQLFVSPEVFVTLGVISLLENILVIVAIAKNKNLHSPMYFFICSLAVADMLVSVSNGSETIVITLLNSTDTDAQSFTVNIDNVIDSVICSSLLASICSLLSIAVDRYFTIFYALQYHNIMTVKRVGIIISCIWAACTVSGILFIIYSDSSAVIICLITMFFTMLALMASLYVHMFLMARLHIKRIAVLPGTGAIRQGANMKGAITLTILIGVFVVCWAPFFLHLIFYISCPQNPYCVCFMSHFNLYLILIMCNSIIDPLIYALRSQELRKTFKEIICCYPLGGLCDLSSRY
Mu-type opioid receptor, sequence (P35372 whole entry): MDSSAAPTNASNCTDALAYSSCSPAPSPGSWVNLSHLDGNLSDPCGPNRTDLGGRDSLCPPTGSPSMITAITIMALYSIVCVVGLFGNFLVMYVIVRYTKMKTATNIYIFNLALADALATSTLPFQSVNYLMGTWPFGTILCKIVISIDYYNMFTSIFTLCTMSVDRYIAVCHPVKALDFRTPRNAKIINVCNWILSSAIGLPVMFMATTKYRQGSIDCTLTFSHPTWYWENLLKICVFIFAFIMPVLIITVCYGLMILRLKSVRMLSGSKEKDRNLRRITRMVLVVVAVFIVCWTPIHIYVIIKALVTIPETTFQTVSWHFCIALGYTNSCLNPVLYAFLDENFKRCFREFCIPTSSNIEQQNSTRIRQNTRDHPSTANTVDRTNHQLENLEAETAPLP

The term IC50 denotes the midpoint of a concentration-inhibition curve. Broadly, the Ki is a measure of affinity in units of concentration, obtained from inhibition or displacement. With `CC1=C(CC(=O)O)c2cc(F)ccc2/C1=C\c1ccc([S+](C)[O-])cc1` (stereo unspecified), the IC50 result (at Mu-type opioid receptor; on Cytochrome P450 2E1; in data set [1]; in data set [2]; in [3]; in data set [4]) was “Not Active” throughout. The concentration for half-maximal inhibition (IC50) entry (in data set [5] (cho-k1); in [6]; against Insulin receptor; against Cytochrome P450 2A6; against Melanocortin receptor 4) was “Not Active” each time. Moreover, the inhibition constant (Ki) entry (on Cytochrome P450 2E1; in data set [1]; in data set [2]; in [3]; in data set [4]; on Cytochrome P450 2A6) was “Not Active” each time.
In the case of `N[C@H](CSC(=S)NCc1ccccc1)C(=O)O`, the half-inhibitory concentration (IC50) entry (on Mu-type opioid receptor; at Cytochrome P450 2E1; in data set [1]; in data set [2]; in [3]; in [4]) was “Not Active” in each case. In addition, the IC50 entry (in data set [5] (cho-k1); in [6]; on Insulin receptor; against Cytochrome P450 2A6; against Melanocortin receptor 4) was “Not Active” in each case. Moreover, the Ki entry (on Cytochrome P450 2E1; in data set [1]; in data set [2]; in data set [3]; in data set [4]; on Cytochrome P450 2A6) was “Not Active” throughout.
Turning to `Clc1ccc2c(c1)C(N1CCNCC1)=Nc1ccccc1O2` [AMOXAPINE], the IC50 result on Mu-type opioid receptor, against Cytochrome P450 2E1, at Insulin receptor, against Cytochrome P450 2A6 and against Melanocortin receptor 4 was “Not Active” each time. The Ki result at Cytochrome P450 2E1 and at Cytochrome P450 2A6 was “Not Active” each time.
For `COc1cc2c(c(OC)c1OC)-c1ccc(OC)c(=O)cc1[C@@H](NC(C)=O)CC2` [COLCHICINE], the IC50 result (against Cytochrome P450 2E1; in [5] (cho-k1); in [6]; on Insulin receptor; against Cytochrome P450 2A6; against Melanocortin receptor 4) was “Not Active” throughout. Besides, the inhibition constant Ki result on Cytochrome P450 2E1 and at Cytochrome P450 2A6 was “Not Active” each time.
For the molecule `CN1CCC(=C2c3ccccc3C=Cc3ccccc32)CC1` [CYPROHEPTADINE], the IC50 entry on Mu-type opioid receptor is “Not Active”; at Cytochrome P450 2E1, “Not Active”; in data set [5] (read-out: IC50), 3.83 nM; against Insulin receptor it was “Not Active”; on Cytochrome P450 2A6, “Not Active”; against Melanocortin receptor 4 it was “Not Active”. For the same molecule, the Ki result is “Not Active” on Cytochrome P450 2E1, 2.75 nM in data set [5] (read-out: Ki) and “Not Active” at Cytochrome P450 2A6.
Turning to `CC/C(=C(/CC)c1ccc(O)cc1)c1ccc(O)cc1` [DIETHYLSTILBESTROL], the IC50 result (on Cytochrome P450 2E1; in data set [6]; against Insulin receptor; against Cytochrome P450 2A6; on Melanocortin receptor 4) was “Not Active” in each case. Further, the Ki result at Cytochrome P450 2E1 and at Cytochrome P450 2A6 was “Not Active” each time.
`CC(=O)N1CCN(c2ccc(OCC3COC(Cn4ccnc4)(c4ccc(Cl)cc4Cl)O3)cc2)CC1` (stereo unspecified) [KETOCONAZOLE]: the IC50 entry (on Mu-type opioid receptor; against Cytochrome P450 2E1; in data set [1]; in data set [2]; in [3]; in data set [4]) was “Not Active” each time. Besides, the IC50 result (in [5] (cho-k1); at Insulin receptor; at Cytochrome P450 2A6; at Melanocortin receptor 4) was “Not Active” each time. In addition, the inhibitory constant (Ki) entry (at Cytochrome P450 2E1; in [1]; in [2]; in data set [3]; in [4]; at Cytochrome P450 2A6) was “Not Active” in each case.
In the case of `C=CCN1CC[C@]23c4c5ccc(O)c4O[C@H]2C(=O)CC[C@@]3(O)[C@H]1C5` [NALOXONE], the IC50 entry (in data set [5] (cho-k1); in data set [6]; against Insulin receptor; against Melanocortin receptor 4) was “Not Active” throughout.
Consider `COCCOC(=O)C1=C(C)NC(C)=C(C(=O)OC(C)C)C1c1cccc([N+](=O)[O-])c1` (stereo unspecified) [NIMODIPINE], for which the IC50 result (at Mu-type opioid receptor; in [1]; in data set [2]; in data set [3]; in data set [4]; in data set [5] (cho-k1)) was “Not Active” throughout. In addition, the IC50 entry (in data set [6]; on Insulin receptor; at Melanocortin receptor 4) was “Not Active” each time. Moreover, the Ki entry in data set [1], in data set [2], in data set [3] and in data set [4] was “Not Active” throughout.
For the molecule `CC(C)NCC(O)COc1cccc2ccccc12` (stereo unspecified) [PROPRANOLOL], the IC50 result (at Mu-type opioid receptor; against Cytochrome P450 2E1; in data set [5] (cho-k1); in data set [6]; at Insulin receptor; against Cytochrome P450 2A6) was “Not Active” throughout. Also, at Melanocortin receptor 4, the IC50 result is “Not Active”. For the same molecule, the inhibitory constant (Ki) entry at Cytochrome P450 2E1 and at Cytochrome P450 2A6 was “Not Active” in each case.
As for `O=C(c1ccc(OCCN2CCCCC2)cc1)c1c(-c2ccc(O)cc2)sc2cc(O)ccc12` [RALOXIFENE], the IC50 entry (against Cytochrome P450 2E1; in data set [1]; in data set [2]; in [3]; in data set [4]; in [5] (cho-k1)) was “Not Active” throughout. Also, the half-maximal inhibitory concentration (IC50) entry (in data set [6]; against Insulin receptor; against Cytochrome P450 2A6; at Melanocortin receptor 4) was “Not Active” each time. Further, the Ki entry (at Cytochrome P450 2E1; in [1]; in data set [2]; in data set [3]; in [4]; on Cytochrome P450 2A6) was “Not Active” each time.
With `CC(C)c1nc(CN(C)C(=O)N[C@H](C(=O)N[C@@H](Cc2ccccc2)C[C@H](O)[C@H](Cc2ccccc2)NC(=O)OCc2cncs2)C(C)C)cs1` [RITONAVIR], the IC50 entry in data set [1], in data set [2], in data set [3], in [4], in [5] (cho-k1) and in data set [6] was “Not Active” in each case. In addition, the IC50 result against Insulin receptor and against Melanocortin receptor 4 was “Not Active” each time. Moreover, the Ki entry in [1], in [2], in data set [3] and in data set [4] was “Not Active” in each case.
Regarding `CC(=O)CC(c1ccccc1)c1c(O)c2ccccc2oc1=O` (stereo unspecified) [WARFARIN], the IC50 result (on Cytochrome P450 2E1; in [1]; in data set [2]; in data set [3]; in data set [4]; in [5] (cho-k1)) was “Not Active” each time. Moreover, the half-maximal inhibitory concentration (IC50) entry (in [6]; on Insulin receptor; at Cytochrome P450 2A6; at Melanocortin receptor 4) was “Not Active” throughout. Moreover, the Ki entry (on Cytochrome P450 2E1; in [1]; in [2]; in data set [3]; in [4]; at Cytochrome P450 2A6) was “Not Active” in each case.

Source of the values: ChEMBL document CHEMBL1909046, “DrugMatrix in vitro pharmacology data”.
